Data as given in patent publication US20050244413A1, “Compositions and methods for treating cancer using cytotoxic CD44 antibody immunoconjugates and chemotherapeutic agents” (priority 2002, published 2005).

Tests used:
[1] = system: antigen-positive cell line FaDu; test: In vitro cytotoxicity, MTS/PMS cell proliferation assay, FaDu; format: cell-based, human; details: FaDu cells, 4 days exposure
Experimental: For determination of viable cells the Cell Titer 96® AQueous non-radioactive cell proliferation assay (Promega) was used. Five thousand cells per well were seeded into 96-well plates in 90 μl medium without phenole red. Cells were allowed to settle down for 1 to 3 h and then serial dilutions of the immunoconjugate in 10 μl PBS were added. Cells without immunoconjugate served as negative control. Cells were incubated for 4 days at 37° C. in a humified 5% CO2 atmosphere and then 20 μl MTS/PMS were added according to the manufacturer's recommendation. After additional 1 to 4 h incubation at 37° C. the absorbance at 490 nm was recorded using an ELISA plate reader. For each cell line triplicates were analyzed. The percentage of the surviving cell fraction and the IC50 value were calculated using the GraphPad Prism® (Version 3.0) software.
The in vitro cytotoxicity of BIWI 1 was evaluated using the antigen-positive cell lines A431 and FaDu, and the antigen-negative cell line […]. Cells were exposed to different concentrations of BIWI 1 for 4 days, then stained with MTS/PMS and assayed on an ELISA plate reader. The surviving fractions of cells were then calculated using the GraphPad Prism® software package.

[2] = Tolerability of BIWI 1 monotherapy in nude mice (mouse weight); format: in vivo; details: FaDu xenografted mice, 21 mg/kg/d BIWI 1
Experimental: (§1) In vivo anti-tumor efficacy of BIWI 1 was tested in three nude mouse xenograft models applying antigen-positive human tumors: A431 (ATCC # CRL 1555; epidermoid carcinoma of the vulva), FaDu (ATCC # HTB 43; squamous cell carcinoma of the pharynx), and MDA-MB 453 (ATCC # HTB-131; breast carcinoma). The cells were received from ATCC and cultured in RPMI1640 medium containing 10% fetal calf serum and supplements. 1×10^6 tumors cells were transplanted subcutaneously into the right flank of 6 week old female NMRI-nu/nu mice. Tumor growth was monitored by measuring tumor size. A tumor response was rated as complete response when the tumor completely disappeared at any time after start of treatment. The response was rated as partial response when the tumor volume decreased after treatment but thereafter started regrowing. The tolerability of the treatment was monitored by measuring mouse weight during the observation period.
The tolerability of BIWI 1 monotherapy was determined by monitoring mouse weight during the whole duration of the experiment in the 2 models. The maximum observed average weight loss per group was 6% in FaDu xenografted mice treated with 21 mg/kg/d BIWI 1 (FIG. 5). The weight loss started around day 3 of treatment and lasted until day 10, thereafter animals regained weight and behaved similar as control animals. […]

[3] = system: FaDu tumors; test: BIWI 1 combination therapy with paclitaxel in the FaDu xenograft model; format: in vivo, mouse
Experimental: as §1
Mice were randomised into the following treatment groups (treatment/initial mean tumor volume/tumor volume range/number of mice): • Group 1: Control (PBS)/197 mm^3/65-402 mm^3/8 mice • Group 2: Paclitaxel/182 mm^3 /65%-302 mm^3/8 mice • Group 3: BIWI 1/208 mm^3 /65-382 mm^3/8 mice • Group 4: BIWI 1+paclitaxel/159 mm^3 /79-335 mm^3 /7 mice
Treatment consisted either of five i.v. injections of BIWI 1 (7 mg/kg corresponding to 100 μg/kg DM1) at day 1, 3, 5, 8, 10, or of six i.p. injections of paclitaxel (10 mg/kg) at day 2, 4, 6, 9, 11, 13, respectively, or a combination thereof. Control animals were treated with PBS.
One tumor completely dissappeared during treatment and the animal remained tumor free until the end of the observation period.

[4] = system: FaDuDD tumors; test: BIWI 1 combination with docetaxel in nude mice xenografted with FaDuDD tumors; format: in vivo, mouse
Experimental: The antibody solution was injected into the tail vein with an injection volume of 200 μl for a 25 g mouse. In the control groups without BIWI 1 treatment animals were injected i.v. with PBS. […] The solution was injected into the tail vein with an injection volume of 200 μl for a 25 g mouse. […] The solution was injected into the tail vein with an injection volume of 200 μl for a 25 g mouse.
Tumor sizes and body weights were recorded 2-3 times per week. Tumor sizes were measured with a calliper (length and width) and the volume was calculated according to the following formula: volume (length)×(width)^2×([…]). The tolerability of the treatment was monitored by measuring mouse weight during the whole observation period. […] For calculation of the mean tumor volumes per group, the last values of tumor size for individual animals were carried forward in case that these animals had to be sacrificed due to large tumor burden before the whole group was terminated. In addition to the absolute tumor volume in mm^3, the relative tumor volumes (RTV) were calculated as follows:
RTV=(tumor volume at day x)/(tumor volume at start of treatment)×100 For the evaluation of treatment efficacy the following parameters were calculated: • T/C (%)=(mean RTV of treated group)/(mean RTV of control group)×100 • T4T (tumor quadrupling time)=time until the mean RTV reaches 400% • GDF4 (growth delay factor)=T4T treated/T4T control.
In addition, for some experiments, the mean time for tumors to reach 8 times (T8T) their initial sizes were also calculated. The growth delay factor (GDF8) was then calculated accordingly. Percentages of mean relative tumor volumes of treated versus control groups (T/C) were calculated on the days indicated. For statistical evaluation of combination therapies exact Wilcoxon tests were used. Tolerability was assessed by monitoring body weight changes.
To assess the efficacy of BIWI 1 in combination with the taxane docetaxel (Taxotere), non-curative doses of both drugs were tested as single agents or in combination in nude mice xenografted with FADuDD tumors. In pilot experiments a dose of 3 mg/kg docetaxel (q7dx4) was determined to be non-curative in this model. BIWI 1 was used at the non-curative dose of 200 μg/kg DM 1 and at a somewhat higher dose (300 μg/kg DM1).
The effect was somewhat more pronounced in the two BIWI 1 monotherapy treatment groups with T/C 41-30% and GDF4: 2.8-4.4. Complete tumor regression could be observed in 1/8 cases with the higher BIWI 1 dose. […] Treatment was well tolerated in all groups, except for a slight unexplained weight loss (approx. −5%) in the docetaxel monotherapy group.

[5] = BIWI 1 7 mg/kg i.v. x5, paclitaxel 10 mg/kg i.p. x6, or both
[6] = BIWI 1 200 μg/kg DM1 i.v. q7dx4
[7] = BIWI 1 300 μg/kg DM1 i.v. q7dx4

Question: For BIWI 1, which IC50 [1] is on record?
Answer: Its IC50 is about 24 nM.

Question: What about the “maximum observed average weight loss per group” value [2] of the same substance?
Answer: Its value is 6%.

Question: And the “Initial Tumor Doubling Time” value ([3]; BIWI 1 7 mg/kg i.v. day 1,3,5,8,10, paclitaxel 10 mg/kg i.p. day 2,4,6,9,11,13, or both)?
Answer: The value was 7 days.

Question: What about the “Complete Regression” value [3, 5] of the same substance?
Answer: Its value is 0/8.

Question: What about the “Growth Delay Factor” value [3, 5] of the same substance?
Answer: Its value is 0.75.

Question: And the partial response ([3]; BIWI 1 monotherapy 7 mg/kg i.v. x5)?
Answer: Its partial response is 3/8.

Question: And the GDF4 [4, 6]?
Answer: Its GDF4 is 2.8.

Question: What about the “T4T” value [4, 6] of the same substance?
Answer: Its value is 20.1 days.

Question: What about the “T/C (d 16)” value [4, 6] of the same substance?
Answer: The value was 41%.

Question: What about the complete tumor regression ([4]; BIWI 1 300 μg/kg DM1 (higher dose) q7dx4) of the same substance?
Answer: Its complete tumor regression is 1/8.

Question: What about the GDF4 [4, 7] of the same substance?
Answer: The GDF4 was 4.4.

Question: What about the “T4T” value [4, 7] of the same substance?
Answer: Its value is 31.1 days.

Question: What about the “T/C (d 16)” value [4, 7] of the same substance?
Answer: The value was 30%.
